Columns and labels:
amylase secretion = assay: Effect on amylase secretion in rats (stimulated by CCK-8); type: in vivo; details: Rattus norvegicus, sc; intraduodenal administration 30 minutes before CCK-8 (10 µg/kg, subcutaneous); anesthetized male Wistar rats; amylase in biliopancreatic juice; read-out: ED₅₀
Description: Male Wistar rats were anesthetized with urethane (1.5 g/kg, S.C.), and tracheal cannula was inserted. Biliopancreatic juice was collected from the cannula which had been inserted into the common bile duct. Thirty minutes after intraduodenal administration of test drug, anylase secretion was stimulated by subcutaneous injection of CCK-8 (10 µg/kg). Amylase concentration in the sample collected every 30 minutes during experiment was assayed using Amylase B Test (Wako), and ED₅₀ value was calculated.

Gallbladder strips = assay: CCK-antagonism in isolated gallbladder (contraction of strips induced by CCK-8); type: cell-based, Hartley guinea-pig; details: Cavia porcellus; antagonism of gallbladder contraction induced by 10⁻⁸ M CCK-8, guinea-pig strips, Krebs solution, 37°C; read-out: IC₅₀
Description: Gallbladder strips isolated from male Hartley guinea-pig were prepared and suspended in Magnus bath filled with Krebs solution (1 g of initial tension). The solution kept at 37°C was aerated with a mixture of 95% O₂ and 5% CO₂. The isometric contraction of strips was recorded through a force-displacement transducer. Antagonism by test drugs against gallbladder contraction induced by 10⁻⁸ M CCK-8 was examined and IC₅₀ value was calculated.

| Structure (SMILES) | ED50 (amylase secretion) [mg/kg] | IC50 (Gallbladder strips) [µM] |
| --- | --- | --- |
| CCCCCN(CCCCC)C(=O)C(CC(=O)O)CS(=O)(=O)c1ccc(Cl)c(Cl)c1 (racemic) [Compound 29] | 9.9 | 37 |
| CCCCCCN(CCCCCC)C(=O)C(CCC(=O)O)CS(=O)(=O)c1ccc(Cl)c(Cl)c1 (racemic) [Compound 33] | 7.1 |  |
